# Source: US9943504B2, “Arginine methyltransferase inhibitors and uses thereof” (Epizyme, Inc., priority 2013, dated 2018)
# Test system: mono-methyl arginine in RKO cells
# Experiment: RKO Methylation Assay (In Cell Western)
# Type: cell-based
# Settings: Homo sapiens, 72 hours, percent activation, read-out: RGG ICW EC30
# Description: RKO adherent cells were purchased from ATCC (American Type Culture Collection), Manassas, Va., USA. DMEM/Glutamax medium, penicillin-streptomycin, heat inactivated fetal bovine serum, 0.05% trypsin and D-PBS were purchased from Life Technologies, Grand Island, N.Y., USA. Odyssey blocking buffer, 800CW goat anti-rabbit IgG (H+L) antibody, and Licor Odyssey infrared scanner were purchased from Licor Biosciences, Lincoln, Nebr., USA. Mono-methyl arginine antibody was purchased from Cell Signaling Technology, Danvers, Mass., USA. Methanol was purchased from VWR, Franklin, Mass., USA. 10% Tween 20 was purchased from KPL, Inc., Gaithersburg, Md., USA. DRAQ5 was purchased from Biostatus Limited, Leicestershire, UK.
# RKO adherent cells were maintained in growth medium (DMEM/Glutamax medium supplemented with 10% v/v heat inactivated fetal bovine serum and 100 units/mL penicillin-streptomycin) and cultured at 37° C. under 5% CO2.
# Cell Treatment, in Cell Western (ICW) for Detection of Mono-Methyl Arginine and DNA Content.
# RKO cells were seeded in assay medium at a concentration of 20,000 cells per mL to a poly-D-lysine coated 384 well culture plate (BD Biosciences 356697) with 50 μL per well. Compound (100 nL) from a 96-well source plate was added directly to 384 well cell plate. Plates were incubated at 37° C., 5% CO2 for 72 hours. After three days of incubation, plates were brought to room temperature outside of the incubator for ten minutes and blotted on paper towels to remove cell media. 50 μL of ice cold 100% methanol was added directly to each well and incubated for 30 min at room temperature. After 30 min, plates were transferred to a Biotek EL406 plate washer and washed 2 times with 100 μL per well of wash buffer (1×PBS). Next 60 μL per well of Odyssey blocking buffer (Odyssey Buffer with 0.1% Tween 20 (v/v)) were added to each plate and incubated 1 hour at room temperature. Blocking buffer was removed and 20 μL per well of primary antibody was added (mono-methyl arginine diluted 1:200 in Odyssey buffer with 0.1% Tween 20 (v/v)) and plates were incubated overnight (16 hours) at 4° C. Plates were washed 5 times with 100 μL per well of wash buffer. Next 20 μL per well of secondary antibody was added (1:200 800CW goat anti-rabbit IgG (H+L) antibody, 1:1000 DRAQ5 (Biostatus limited) in Odyssey buffer with 0.1% Tween 20 (v/v)) and incubated for 1 hour at room temperature. The plates were washed 5 times with 100 μL per well wash buffer then 2 times with 100 μL per well of water. Plates were allowed to dry at room temperature then imaged on the Licor Odyssey machine which measures integrated intensity at 700 nm and 800 nm wavelengths. Both 700 and 800 channels were scanned.
# First, the ratio for each well was determined by:
# Each plate included fourteen control wells of DMSO only treatment (minimum activation) as well as fourteen control wells for maximum activation treated with 20 μM of a reference compound. The average of the ratio values for each control type was calculated and used to determine the percent activation for each test well in the plate. Reference compound was serially diluted three-fold in DMSO for a total of nine test concentrations, beginning at 20 μM. Percent activation was determined and EC30 curves were generated using triplicate wells per concentration of compound.
smiles,measurement,value
CN(CCN)Cc1n[nH]c2cccc(OCc3ccccc3)c12 [Compound 1],EC30,≤ 3 µM
